Results taken from patent US7705038B2, “Control of parasites in animals by the use of parasiticidal 2-phenyl-3-(1H-pyrrol-2-yl)acrylonitrile derivatives” (Intervet, Inc., priority 2004, dated 2010).

How the values were obtained:
[1] = tested on: Haemonchus contortus; test: Activity against Haemonchus contortus (LD99); settings: dose required to kill 99% of the sample of Haemonchus contortus
Excerpt: (§1) Exemplified compounds of Formula 1 are listed by Tables 1a and 1b, above. The activity of these compounds against Haemonchus contortus and cat fleas (Ctenocephalides felis) is summarized by Table 7, below.
The LD99 value is the dose, expressed as μg/ml, that was required to kill 99% of the sample of Haemonchus contortus.

[2] = tested on: cat fleas (Ctenocephalides felis); test: Contact activity against cat fleas (LC50, % kill); settings: for % Kill: percent of a sample of cat fleas killed at a concentration of 1.26 μg/cm^2; for LC50: concentration required to kill 50% of the sample of cat fleas on contact
Excerpt: as §1

SMILES	LD99 [1]	% Kill [2] [%]	LC50 [2] [μg/cm^2]	EC99 [1] [µg/mL]	pest or weed control at 1.26 µg/cm2, 1.26 µg/cm2 ([2]; Ctenocephalides felis, read-out: % Kill) [%]
N#C/C(=C\c1cc(Br)c[nH]1)c1ccc(Cl)c(Cl)c1 [Compound 29]	5 µg/mL	15			
CCN(CC)C(=O)n1cccc1/C=C(\C#N)c1ccc(Cl)cc1 [Compound 78]	3.5 µg/mL	8			
N#C/C(=C\c1cc(Br)c[nH]1)c1ccc(C(F)(F)F)cc1 [Compound 11]	— (the symbol ‘—’ indicates tested but inactive up to 15 μg/ml)	18			
CC(C)(C)c1ccc(/C(C#N)=C/c2ccc[nH]2)cc1 [Compound 15]	3.25 µg/mL	87	0.478		
N#C/C(=C\c1ccc[nH]1)c1ccc(F)c(Br)c1 [Compound 73]	0.469 µg/mL	7			
N#C/C(=C\c1ccc[nH]1)c1cccc(Oc2ccccc2)c1 [Compound 71]	3.25 µg/mL	10			
N#C/C(=C\c1ccc[nH]1)c1ccc([N+](=O)[O-])cc1 [Compound 40]	— (the symbol ‘—’ indicates tested but inactive up to 15 μg/ml)	6			
N#C/C(=C\c1ccc[nH]1)c1c(F)cccc1F [Compound 70]	7.5 µg/mL	17			
N#C/C(=C\c1ccc[nH]1)c1ccc(C(F)(F)F)cc1 [Compound 4]	0.625 µg/mL	20			
CCOCn1cccc1/C=C(\C#N)c1ccc(F)cc1F [Compound 60]	— (the symbol ‘—’ indicates tested but inactive up to 15 μg/ml)	19			
Cc1ccc(/C(C#N)=C/c2ccc[nH]2)c(C)c1 [Compound 88]	— (the symbol ‘—’ indicates tested but inactive up to 15 μg/ml)	44			
N#C/C(=C\c1cccn1C(=O)c1ccccc1)c1ccc(Cl)cc1 [Compound 82]	1.25 µg/mL	6			
N#C/C(=C\c1ccc[nH]1)c1ccccc1C#N [Compound 37]	— (the symbol ‘—’ indicates tested but inactive up to 15 μg/ml)	11			
N#C/C(=C\c1cccn1Cc1ccccc1)c1ccc(Cl)cc1 [Compound 77]	14 µg/mL	3			
CCOCn1cccc1/C=C(\C#N)c1ccccc1F [Compound 55]	— (the symbol ‘—’ indicates tested but inactive up to 15 μg/ml)	10			
N#C/C(=C\c1ccc[nH]1)c1ccc(F)c(F)c1 [Compound 47]	0.75 µg/mL	17			
Cn1cccc1/C=C(\C#N)c1ccc(Cl)cc1 [Compound 6, (Z)-2-(4-Chloro-phenyl)-3-(1-methyl-1H-pyrrol-2-yl)acrylonitrile]				1.88	13
N#C/C(=C\c1ccc[nH]1)c1ccc(Cl)cc1F [Compound 48]	2.5 µg/mL	5			
N#C/C(=C\c1ccc[nH]1)c1cccc(F)c1 [Compound 10]	1.625 µg/mL	78	0.78		
N#C/C(=C\c1ccc[nH]1)c1ccc(I)cc1 [Compound 36]	0.688 µg/mL	14			
